Results as given in US20110275559A1, “Long-Acting Y2 and/or Y4 Receptor Agonists” (Novo Nordisk A/S, priority 2008, published 2011).
Where two headings read alike, the source gives them in different places. Marks after values point to notes of the source that are not given here. *1 amine or outer side, *2 acyl side, *3 side chain or, on linkers, in order; H or OH if unused. Where a SMILES comes first, the peptide text is derived from it. Where no end group is shown, it is not given here. Side-chain parts run from the residue outwards. The star is where a group is joined. C20 diacid = O=C(O)CCCCCCCCCCCCCCCCCCC(=O)*; C18 diacid = O=C(O)CCCCCCCCCCCCCCCCC(=O)*; γGlu = O=C(O)[C@H](CCC(=O)[*:2])N[*:1]; Trx = NC[C@H]1CC[C@H](C(=O)O)CC1; AEEA = NCCOCCOCC(=O)O

Key:
[1] = Adrian T. E. et al, Gut (1978), 19, pp 907-909; cited from earlier work
[2] = in vivo; conditions: Göttingen, minipig, iv
Procedure, shortened: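 Catheterised mini-pigs received compound i.v. at 10 nmol/kg in pH 4.0 phosphate/NaCl/tween vehicle, or alternatively i.v. or s.c. at 1–30 nmol/kg in pH 8.0 K2HPO4/tween. Stabilised plasma was sampled up to 13 days and assayed by LC-MS (LLOQ 2 nM). Half-life came from non-compartmental analysis of individual animal profiles.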

[3] = tested on: lean C57BL/6 mice; experiment: Acute food intake in fasted lean mice (BioDAQ, fasting-induced refeeding); format: in vivo; conditions: for Mean cumulative food intake / Mean cumulative food intake [g]: Table 5, Study 6A
Description: Acute food intake in mice: Lean C57BL male mice are obtained from Charles River, Japan. They are maintained on a 12:12 light:dark cycle (lights off at 10:00 AM, lights on at 10:00 PM), fed pelleted D12450B rodent diet (Research Diets, Inc., New Brunswick, N.J.), and allowed water ad libitum. The mice arrive at 7-8 weeks of age and are acclimatized in the BioDAQ system a minimum of two weeks prior to study. On the day of study, mice are 9-12 weeks old. They are fasted overnight (20-24 h) with free access to water. The day of the study, mice are dosed with s.c. injection (dose volume=10 mL/kg), returned to their cage, and pre-weighed food is immediately placed in the cage. […] When the mice eat the weight reduction of the content of the food-tray is registered. Data is registered each time there is a change in the weight of the individual food-tray. Cumulative food intake is calculated by subtracting the food weight at each time point from the starting food weight.
Mice were administrated a single dose of the peptides (1 μmol/kg s.c.) 30 min before food return and cumulative food intake was measured over 24 h. […] One way ANOVA was carried for each time point out using the software Graph-Pad Prism, version 5.0. The statistical method used for the data in FIG. 1A was an unpaired t-test using the software Graph-Pad Prism, version 5.0. The statistical method used for the data in FIG. 1B and Table 4 was ANOVA, Dunnetts post hoc. Stars in FIGS. 1A and 1B indicate significance versus the vehicle group *) p<0.05, **) p<0.01, ***) p<0.001.
Fasted lean C57BL/6 mice were administrated a single subcutaneous injection of vehicle or peptide approximately 30 min before food return and the cumulative food intake was measured subsequently. One way ANOVA was carried out for each time point using the software Graph-Pad Prism, version 5.0.

[4] = target: T1, Y2 receptor (Homo sapiens, UniProt P49146); experiment: Y2 receptor ACTOne based FLIPR assay (cAMP biosensor); format: cell-based
T1 construct: host or cells: ACTOne HEK-293 cells
T1 sequence (P49146 1-381): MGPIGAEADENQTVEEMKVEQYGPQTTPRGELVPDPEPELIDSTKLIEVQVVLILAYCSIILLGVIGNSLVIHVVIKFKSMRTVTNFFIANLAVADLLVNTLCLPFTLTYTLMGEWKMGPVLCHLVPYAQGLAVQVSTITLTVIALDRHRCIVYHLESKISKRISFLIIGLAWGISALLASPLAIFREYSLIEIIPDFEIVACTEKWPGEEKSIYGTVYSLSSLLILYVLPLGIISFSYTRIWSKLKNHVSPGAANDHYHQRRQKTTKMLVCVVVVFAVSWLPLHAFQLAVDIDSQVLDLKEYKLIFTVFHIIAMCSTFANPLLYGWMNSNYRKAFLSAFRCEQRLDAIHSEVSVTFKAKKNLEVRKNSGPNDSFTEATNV

[5] = target: T2, Y4 receptor (Homo sapiens, UniProt P50391); experiment: Y4 receptor ACTOne based FLIPR assay (cAMP biosensor); format: cell-based
T2 construct: host or cells: ACTOne HEK-293 cells
T2 sequence (P50391 whole entry): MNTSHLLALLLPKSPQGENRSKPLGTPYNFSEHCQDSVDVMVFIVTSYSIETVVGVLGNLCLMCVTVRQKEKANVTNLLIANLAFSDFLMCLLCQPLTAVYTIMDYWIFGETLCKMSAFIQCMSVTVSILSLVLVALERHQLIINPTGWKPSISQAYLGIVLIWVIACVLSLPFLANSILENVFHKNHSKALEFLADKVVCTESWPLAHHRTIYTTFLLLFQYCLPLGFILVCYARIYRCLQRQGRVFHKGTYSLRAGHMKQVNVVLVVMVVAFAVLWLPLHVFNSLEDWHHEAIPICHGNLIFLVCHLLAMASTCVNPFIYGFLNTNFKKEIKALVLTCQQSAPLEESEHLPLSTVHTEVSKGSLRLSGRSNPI

[6] = target: T3, Y2 receptor (UniProt P49146 1-381, limits assumed); experiment: cell-based or functional assay
T3 sequence (looked up): T1 sequence (P49146 1-381)

[7] = Table 2, PP analogues, ACTOne HEK-293 cells, read-out: Y2 cAMP EC50
[8] = Table 2, PP analogues, ACTOne HEK-293 cells, read-out: Y4 cAMP EC50

For `CC[C@H](C)[C@H](NC(=O)[C@H](Cc1ccc(O)cc1)NC(=O)[C@H](CCCNC(=N)N)NC(=O)[C@H](CCCNC(=N)N)NC(=O)[C@H](CC(C)C)NC(=O)[C@H](CC(=O)O)NC(=O)[C@H](C)NC(=O)[C@H](C)NC(=O)[C@H](Cc1ccc(O)cc1)NC(=O)[C@H](CCC(N)=O)NC(=O)[C@H](C)NC(=O)[C@H](CCSC)NC(=O)[C@H](CCC(N)=O)NC(=O)[C@H](CCC(=O)O)NC(=O)[C@@H]1CCCN1C(=O)[C@@H](NC(=O)[C@H](C)NC(=O)[C@H](CC(N)=O)NC(=O)[C@H](CC(=O)O)NC(=O)CNC(=O)[C@@H]1CCCN1C(=O)[C@H](Cc1ccc(O)cc1)NC(=O)[C@@H](NC(=O)[C@@H]1CCCN1C(=O)[C@H](CCC(=O)O)NC(=O)[C@H](CC(C)C)NC(=O)[C@@H]1CCCN1C(=O)[C@H](C)N)C(C)C)[C@@H](C)O)C(=O)N[C@@H](CC(N)=O)C(=O)N[C@@H](CCSC)C(=O)N[C@@H](CC(C)C)C(=O)N[C@H](C(=O)N[C@@H](CCCNC(=N)N)C(=O)N1CCC[C@H]1C(=O)N[C@@H](CCCNC(=N)N)C(=O)N[C@@H](Cc1ccc(O)cc1)C(N)=O)[C@@H](C)O` [SEQ ID NO: 2, hPP(1-36)], the “half-life reported in man” value [1] is given as 7 min, the half-life ([2]; 15 nmol/kg) is given as 0.035 h and the half-life ([2]; 45 nmol/kg) is given as 0.031 h. For the same molecule, the “time after administration at which the effect in reducing food intake has disappeared” value ([3]; Study 6A, fasted lean C57BL/6 mice, 1.0 μmol/kg s.c.) was 12 h, the “Mean cumulative food intake” value ([3]; fasted lean C57BL/6 mice, single 1.0 μmol/kg s.c., 4 hours after injection, vehicle 1.51) was 1.18 g and the “Mean cumulative food intake [g]” value ([3]; mice, 1.0 μmol/kg s.c., 6 hours after injection, vehicle 2.04) was 1.51** g. The “Mean cumulative food intake [g]” value ([3]; mice, 1.0 μmol/kg s.c., 8 hours after injection, vehicle 2.61) was 1.98** g, the “Mean cumulative food intake” value ([3]; mice, 1.0 μmol/kg s.c., 12 hours after injection, vehicle 3.49) was 3.19 g and the “Mean cumulative food intake” value ([3]; mice, 1.0 μmol/kg s.c., 24 hours after injection, vehicle 4.35) was 3.87 g. For the same molecule, the “Mean cumulative food intake” value ([3]; mice, 1.0 μmol/kg s.c., 36 hours after injection, vehicle 8.41) was 7.93 g and the “Mean cumulative food intake” value ([3]; mice, 1.0 μmol/kg s.c., 48 hours after injection, vehicle 8.87) was 8.56 g.

Molecule `CC[C@H](C)[C@H](NC(=O)[C@H](Cc1ccc(O)cc1)NC(=O)[C@H](CCCNC(=N)N)NC(=O)[C@H](CCCCNC(=O)COCCOCCNC(=O)COCCOCCNC(=O)CC[C@H](NC(=O)[C@H]1CC[C@H](CNC(=O)CCCCCCCCCCCCCCCCCCC(=O)O)CC1)C(=O)O)NC(=O)[C@H](CC(C)C)NC(=O)[C@H](CC(=O)O)NC(=O)[C@H](C)NC(=O)[C@H](C)NC(=O)[C@H](Cc1ccc(O)cc1)NC(=O)[C@H](CCC(N)=O)NC(=O)[C@H](C)NC(=O)[C@H](CC(C)C)NC(=O)[C@H](CCC(N)=O)NC(=O)[C@H](CCC(=O)O)NC(=O)[C@@H]1CCCN1C(=O)[C@@H](NC(=O)[C@H](C)NC(=O)[C@H](CC(N)=O)NC(=O)[C@H](CC(=O)O)NC(=O)CNC(=O)[C@@H]1CCCN1C(=O)[C@H](Cc1ccc(O)cc1)NC(=O)[C@@H](NC(=O)[C@@H]1CCCN1C(=O)[C@H](CCC(=O)O)NC(=O)[C@H](CC(C)C)NC(=O)[C@@H]1CCCN1)C(C)C)[C@@H](C)O)C(=O)N[C@@H](CC(N)=O)C(=O)N[C@@H](CC(C)C)C(=O)N[C@@H](CC(C)C)C(=O)N[C@H](C(=O)N[C@@H](CCCNC(=N)N)C(=O)N1CCC[C@H]1C(=O)N[C@@H](CCCNC(=N)N)C(=O)N[C@@H](Cc1ccc(O)cc1)C(N)=O)[C@@H](C)O` [SEQ ID NO: 50, N-epsilon25-[2-(2-{2-[2-(2-{2-[(S)-4-Carboxy-4-({trans-4-[(19-carboxynonadecanoylamino)methyl]cyclohexanecarbonyl}amino)butyrylamino]-ethoxy}ethoxy)acetylamino]ethoxy}ethoxy)acetyl][Leu17,Lys25,Leu30]hPP2-36] (H-PLEPVYPGDNATPEQLAQYAADLK([AEEA-AEEA-γGlu-Trx-C20 diacid])RYINLLTRPRY-NH2) has a half-life ([2]; 10 nmol/kg) of 82 h, an EC50 [4, 7] of over 1000 nM and an EC50 [5, 8] of over 1000 nM.

Work on `CC[C@H](C)[C@H](NC(=O)[C@H](Cc1ccc(O)cc1)NC(=O)[C@H](CCCNC(=N)N)NC(=O)[C@H](CCCNC(=N)N)NC(=O)[C@H](CC(C)C)NC(=O)[C@H](CC(=O)O)NC(=O)[C@H](C)NC(=O)[C@H](C)NC(=O)[C@H](Cc1ccc(O)cc1)NC(=O)[C@H](CCC(N)=O)NC(=O)[C@H](C)NC(=O)[C@H](CC(C)C)NC(=O)[C@H](CCC(N)=O)NC(=O)[C@H](CCC(=O)O)NC(=O)[C@@H]1CCCN1C(=O)[C@@H](NC(=O)[C@H](C)NC(=O)[C@H](CC(N)=O)NC(=O)[C@H](CC(=O)O)NC(=O)CNC(=O)[C@@H]1CCCN1C(=O)[C@H](Cc1ccc(O)cc1)NC(=O)[C@@H](NC(=O)[C@@H]1CCCN1C(=O)[C@H](CCC(=O)O)NC(=O)[C@H](CC(C)C)NC(=O)[C@@H]1CCCN1C(=O)COCCOCCNC(=O)COCCOCCNC(=O)CC[C@H](NC(=O)CCCCCCCCCCCCCCCCC(=O)O)C(=O)O)C(C)C)[C@@H](C)O)C(=O)N[C@@H](CC(N)=O)C(=O)N[C@@H](CC(C)C)C(=O)N[C@@H](CC(C)C)C(=O)N[C@H](C(=O)N[C@@H](CCCNC(=N)N)C(=O)N1CCC[C@H]1C(=O)N[C@@H](CCCNC(=N)N)C(=O)N[C@@H](Cc1ccc(O)cc1)C(N)=O)[C@@H](C)O` [SEQ ID NO: 55, N-alfa-[2-(2-{2-[2-(2-{2-[(S)-4-Carboxy-4-(17-carboxyheptadecanoylamino)butyrylamino]ethoxy}ethoxy)acetylamino]-ethoxy}ethoxy)acetyl][Leu17,Leu30]hPP2-36] ({C18 diacid-γGlu-AEEA-AEEA}-PLEPVYPGDNATPEQLAQYAADLRRYINLLTRPRY-NH2; C-terminus assumed) yielded a half-life ([2]; 7 nmol/kg) of 29 h, an EC50 [4, 7] of over 1000 nM and an EC50 [5, 8] of 1 nM.

In the case of `CC[C@H](C)[C@H](NC(=O)[C@H](Cc1ccc(O)cc1)NC(=O)[C@H](CCCNC(=N)N)NC(=O)[C@H](CCCNC(=N)N)NC(=O)[C@H](CC(C)C)NC(=O)[C@H](CC(=O)O)NC(=O)[C@H](C)NC(=O)[C@H](C)NC(=O)[C@H](Cc1ccc(O)cc1)NC(=O)[C@H](CCC(N)=O)NC(=O)[C@H](C)NC(=O)[C@H](CC(C)C)NC(=O)[C@H](CCC(N)=O)NC(=O)[C@H](CCC(=O)O)NC(=O)[C@@H]1CCCN1C(=O)[C@@H](NC(=O)[C@H](C)NC(=O)[C@H](CC(N)=O)NC(=O)[C@H](CC(=O)O)NC(=O)CNC(=O)[C@@H]1CCCN1C(=O)[C@H](Cc1ccc(O)cc1)NC(=O)[C@@H](NC(=O)[C@@H]1CCCN1C(=O)[C@H](CCC(=O)O)NC(=O)[C@H](CC(C)C)NC(=O)[C@@H]1CCCN1C(=O)COCCOCCNC(=O)COCCOCCNC(=O)CC[C@H](NC(=O)[C@H]1CC[C@H](CNC(=O)CCCCCCCCCCCCCCCCCCC(=O)O)CC1)C(=O)O)C(C)C)[C@@H](C)O)C(=O)N[C@@H](CC(N)=O)C(=O)N[C@@H](CC(C)C)C(=O)N[C@@H](CC(C)C)C(=O)N[C@H](C(=O)N[C@@H](CCCNC(=N)N)C(=O)N1CCC[C@H]1C(=O)N[C@@H](CCCNC(=N)N)C(=O)N[C@@H](Cc1ccc(O)cc1)C(N)=O)[C@@H](C)O` [SEQ ID NO: 56, N-alfa-[2-(2-{2-[2-(2-{2-[(S)-4-Carboxy-4-({trans-4-[(19-carboxynonadecanoylamino)methyl]cyclohexanecarbonyl}amino)butyrylamino]-ethoxy}ethoxy)acetylamino]ethoxy}ethoxy)acetyl][Leu17,Leu30]hPP2-36] ({C20 diacid-Trx-γGlu-AEEA-AEEA}-PLEPVYPGDNATPEQLAQYAADLRRYINLLTRPRY-NH2; C-terminus assumed), the half-life ([2]; in vivo, 6 nmol/kg) is reported as 22 h, the EC50 [4] is reported as over 1000 nM and the EC50 [5] is reported as 4 nM.

In the case of {C20 diacid-Trx-γGlu-AEEA-AEEA}-NRYYASLRHYLNLVTRQRY (ends and bridges not checked), the “Y2 cAMP EC50” value [6] is reported as 97 nM.
